Results from patent US11827657B2, “Boron containing pyrazole compounds, compositions comprising them, methods and uses thereof” (BOEHRINGER INGELHEIM ANIMAL HEALTH USA INC., priority 2020, dated 2023).

Each compound was assayed against JAK1 (Homo sapiens, UniProt P23458) (assay: Biochemical Kinase Assay (JAK), 33P-ATP filter-binding). Conditions: Biochemical Kinase Inhibition Assay; potency level of IC50; read-out: JAK1 (range).
Procedure: Biochemical Kinase Assay Protocol (JAK) • Reagent: Base Reaction buffer; 20 mM Hepes (pH 7.5), 10 mM MgCl2, 1 mM EGTA, 0.02% Brij™ 35, 0.02 mg/ml BSA, 0.1 mM Na3VO4, 2 mM DTT, 1% DMSO, where required cofactors were added individually to each kinase reaction.
Reaction Procedure: • 1. Prepared indicated substrate in freshly prepared Base Reaction Buffer • 2. Delivered any required cofactors to the substrate solution above • 3. Delivered indicated kinase into the substrate solution and gently mix • 4. Delivered compounds in DMSO into the kinase reaction mixture by Acoustic technology (Echo550; nanoliter range), incubated for 20 minutes at room temperature • 5. Delivered 33P-ATP into the reaction mixture to initiate the reaction. • 6. Incubated kinase reaction for 2 hours at room temperature • 7. Reactions were spotted onto P81 ion exchange paper • 8. Detected kinase activity by filter-binding method.
Compounds according to the present invention were tested in the Biochemical Kinase Assay Protocol. The results are provided below in Table 1, wherein the potency levels A, B, and C in the columns labeled JAK1 (range) correspond to IC50 as follows: A<10 nM; B=10-50 nM and C>50 nM. The Example Number entries formatted ##a represent stereoisomer one and entries formatted ##b represent stereoisomer two.

Sequence of JAK1 (P23458 whole entry, species assumed): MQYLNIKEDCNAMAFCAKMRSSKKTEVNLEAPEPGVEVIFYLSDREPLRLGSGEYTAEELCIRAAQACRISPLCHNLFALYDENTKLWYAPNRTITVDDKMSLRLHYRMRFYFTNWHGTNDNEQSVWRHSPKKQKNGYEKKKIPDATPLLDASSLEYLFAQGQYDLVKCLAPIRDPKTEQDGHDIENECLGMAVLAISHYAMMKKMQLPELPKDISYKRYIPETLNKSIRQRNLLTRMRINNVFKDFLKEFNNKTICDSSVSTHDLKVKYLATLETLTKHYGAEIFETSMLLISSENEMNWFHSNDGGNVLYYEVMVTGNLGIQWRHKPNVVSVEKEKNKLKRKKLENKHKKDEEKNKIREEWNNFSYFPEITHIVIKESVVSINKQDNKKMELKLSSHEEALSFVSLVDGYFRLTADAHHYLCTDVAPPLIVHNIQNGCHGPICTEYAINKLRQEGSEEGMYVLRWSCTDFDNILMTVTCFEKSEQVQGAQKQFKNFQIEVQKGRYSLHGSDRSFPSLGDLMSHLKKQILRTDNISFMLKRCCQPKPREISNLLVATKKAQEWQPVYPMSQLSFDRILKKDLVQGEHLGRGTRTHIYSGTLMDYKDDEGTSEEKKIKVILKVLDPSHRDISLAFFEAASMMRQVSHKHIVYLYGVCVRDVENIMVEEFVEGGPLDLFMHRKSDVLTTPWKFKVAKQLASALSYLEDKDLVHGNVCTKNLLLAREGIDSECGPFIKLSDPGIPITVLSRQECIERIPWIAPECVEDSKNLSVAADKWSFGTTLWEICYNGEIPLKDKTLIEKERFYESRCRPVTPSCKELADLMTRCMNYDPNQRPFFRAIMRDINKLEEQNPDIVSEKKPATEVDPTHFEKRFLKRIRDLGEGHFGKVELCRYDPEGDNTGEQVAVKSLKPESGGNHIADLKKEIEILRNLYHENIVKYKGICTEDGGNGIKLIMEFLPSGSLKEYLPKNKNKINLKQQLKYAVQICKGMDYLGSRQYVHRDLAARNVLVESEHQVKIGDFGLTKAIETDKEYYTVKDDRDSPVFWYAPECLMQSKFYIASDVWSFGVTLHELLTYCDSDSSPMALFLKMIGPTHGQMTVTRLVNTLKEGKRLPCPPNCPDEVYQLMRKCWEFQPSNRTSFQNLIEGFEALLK

SMILES | IC50
N#C[C@@H]1CCOC[C@H]1n1cc(C(N)=O)c(Nc2cc(F)c3c(c2)B(O)OC3)n1 (relative stereo) [Example 1, 1-[trans-4-cyanotetrahydro-2H-pyran-3-yl]-3-[(4-fluoro-1-hydroxy-3H-2,1-benzoxaborol-6-yl)amino]pyrazole-4-carboxamide] | 10 to 50 nM
N#C[C@@H]1CCOC[C@H]1n1cc(C(N)=O)c(Nc2ccc3c(c2)OB(O)C=C3)n1 (relative stereo) [Example 2, 1-[trans-4-cyanotetrahydro-2H-pyran-3-yl]-3-[(2-hydroxy-1,2-benzoxaborinin-7-yl)amino]pyrazole-4-carboxamide] | > 50 nM
CC1=C(C)c2cc(Nc3nn([C@@H]4COCC[C@H]4C#N)cc3C(N)=O)ccc2OB1O (relative stereo) [Example 4, 1-(trans-4-cyanotetrahydro-2H-pyran-3-yl)-3-((2-hydroxy-3,4-dimethyl-2H-benzo[e][1,2]oxaborinin-6-yl)amino)-1H-pyrazole-4-carboxamide] | < 10 nM
N#C[C@@H]1CCC[C@H]1n1cc(C(N)=O)c(Nc2ccc3c(c2)C=CB(O)O3)n1 (relative stereo) [Example 8, 1-(trans-2-cyanocyclopentyl)-3-[(2-hydroxy-1,2-benzoxaborinin-6-yl)amino]pyrazole-4-carboxamide] | < 10 nM
N#C[C@@H]1CCC[C@H]1n1cc(C(N)=O)c(Nc2ccc3c(c2)COB3O)n1 (relative stereo) [Example 12, 1-(trans-2-cyanocyclopentyl)-3-((1-hydroxy-1,3-dihydrobenzo[c][1,2]oxaborol-5-yl)amino)-1H-pyrazole-4-carboxamide] | < 10 nM
N#C[C@@H]1CCCC[C@H]1n1cc(C(N)=O)c(Nc2ccc3c(c2)C=CB(O)O3)n1 (relative stereo) [Example 18, 1-(trans-2-cyanocyclohexyl)-3-[(2-hydroxy-1,2-benzoxaborinin-6-yl)amino]pyrazole-4-carboxamide] | < 10 nM
CC(C)(C)C1=Cc2cc(Nc3nn([C@@H]4COCC[C@H]4C#N)cc3C(N)=O)ccc2OB1O (relative stereo) [Example 19, 3-[(3-tert-butyl-2-hydroxy-1,2-benzoxaborinin-6-yl)amino]-1-(trans-4-cyanotetrahydro-2H-pyran-3-yl)pyrazole-4-carboxamide] | < 10 nM
CC(C)(C)C1=Cc2cc(Nc3nn([C@@H]4CCC[C@H]4C#N)cc3C(N)=O)ccc2OB1O (relative stereo) [Example 20, 3-[(3-tert-butyl-2-hydroxy-1,2-benzoxaborinin-6-yl)amino]-1-(trans-2-cyanocyclopentyl)pyrazole-4-carboxamide] | 10 to 50 nM
N#C[C@@H]1CCOC[C@H]1n1cc(C(N)=O)c(Nc2ccc3c(c2)C=C(CCO)B(O)O3)n1 (relative stereo) [Example 22, 1-[trans-4-cyanooxan-3-yl]-3-{[2-hydroxy-3-(2-hydroxyethyl)-2H-1,2-benzoxaborinin-6-yl]amino}-1H-pyrazole-4-carboxamide] | < 10 nM
CC1=Cc2cc(Nc3nn([C@@H]4CCCC[C@H]4C#N)cc3C(N)=O)ccc2OB1O (relative stereo) [Example 26, 1-[trans-2-cyanocyclohexyl]-3-[(2-hydroxy-3-methyl-1,2-benzoxaborinin-6-yl)amino]pyrazole-4-carboxamide] | < 10 nM
N#C[C@@H]1CCOC[C@H]1n1cc(C(N)=O)c(Nc2cc3c(cc2F)OB(O)C=C3)n1 (relative stereo) [Example 29, 1-(trans-4-cyanotetrahydro-2H-pyran-3-yl)-3-[(7-fluoro-2-hydroxy-1,2-benzoxaborinin-6-yl)amino]pyrazole-4-carboxamide] | 10 to 50 nM
CCC1=CB(O)Oc2ccc(Nc3nn([C@@H]4COCC[C@H]4C#N)cc3C(N)=O)cc21 (relative stereo) [Example 33, 1-(trans-4-cyanotetrahydro-2H-pyran-3-yl)-3-[(4-ethyl-2-hydroxy-1,2-benzoxaborinin-6-yl)amino]pyrazole-4-carboxamide] | < 10 nM
CC(C)C1=CB(O)Oc2ccc(Nc3nn([C@@H]4CCCC[C@H]4C#N)cc3C(N)=O)cc21 (relative stereo) [Example 34, 1-(trans-2-cyanocyclohexyl)-3-[(2-hydroxy-4-isopropyl-1,2-benzoxaborinin-6-yl)amino]pyrazole-4-carboxamide] | 10 to 50 nM
CC(C)C1=CB(O)Oc2ccc(Nc3nn([C@@H]4CCC[C@H]4C#N)cc3C(N)=O)cc21 (relative stereo) [Example 35, 1-(trans-2-cyanocyclopentyl)-3-[(2-hydroxy-4-isopropyl-1,2-benzoxaborinin-6-yl)amino]pyrazole-4-carboxamide] | 10 to 50 nM
CC(C)C1=Cc2cc(Nc3nn([C@@H]4CCCC[C@H]4C#N)cc3C(N)=O)ccc2OB1O (relative stereo) [Example 49, 1-(trans-2-cyanocyclohexyl)-3-[(2-hydroxy-3-isopropyl-1,2-benzoxaborinin-6-yl)amino]pyrazole-4-carboxamide] | < 10 nM

Results, then the compound that gave them:

IC50 | SMILES
< 10 nM | CC1=Cc2cc(Nc3nn([C@@H]4COCC[C@H]4C#N)cc3C(N)=O)ccc2OB1O (relative stereo) [Example 5, 1-(trans-4-cyanotetrahydro-2H-pyran-3-yl)-3-((2-hydroxy-3-methyl-2H-benzo[e][1,2]oxaborinin-6-yl)amino)-1H-pyrazole-4-carboxamide]
< 10 nM | N#C[C@@H]1CCOC[C@H]1n1cc(C(N)=O)c(Nc2ccc3c(c2)CCOB3O)n1 (relative stereo) [Example 7, 1-(trans-4-cyanotetrahydro-2H-pyran-3-yl)-3-((1-hydroxy-3,4-dihydro-1H-benzo[c][1,2]oxaborinin-6-yl)amino)-1H-pyrazole-4-carboxamide]
< 10 nM | N#C[C@@H]1CCCC[C@H]1n1cc(C(N)=O)c(Nc2ccc3c(c2)B(O)OC3)n1 (relative stereo) [Example 9, 1-(trans-2-cyanocyclohexyl)-3-[(1-hydroxy-3H-2,1-benzoxaborol-6-yl)amino]pyrazole-4-carboxamide]
10 to 50 nM | N#C[C@@H]1CCC[C@H]1n1cc(C(N)=O)c(Nc2ccc3c(c2)B(O)OC3)n1 (relative stereo) [Example 10, 1-(trans-2-cyanocyclopentyl)-3-[(1-hydroxy-3H-2,1-benzoxaborol-6-yl)amino]pyrazole-4-carboxamide]
< 10 nM | N#C[C@@H]1CCCC[C@H]1n1cc(C(N)=O)c(Nc2ccc3c(c2)COB3O)n1 (relative stereo) [Example 11, 1-(trans-2-cyanocyclohexyl)-3-((1-hydroxy-1,3-dihydrobenzo[c][1,2]oxaborol-5-yl)amino)-1H-pyrazole-4-carboxamide]
< 10 nM | CC1=Cc2cc(Nc3nn([C@@H]4CCC[C@H]4C#N)cc3C(N)=O)cc(F)c2OB1O (relative stereo) [Example 15, 1-(trans-2-cyanocyclopentyl)-3-[(8-fluoro-2-hydroxy-3-methyl-1,2-benzoxaborinin-6-yl)amino]pyrazole-4-carboxamide]
< 10 nM | CC(C)(C)C1=Cc2cc(Nc3nn([C@@H]4CCCC[C@H]4C#N)cc3C(N)=O)ccc2OB1O (relative stereo) [Example 21, 3-[(3-tert-butyl-2-hydroxy-1,2-benzoxaborinin-6-yl)amino]-1-(trans-2-cyanocyclohexyl)pyrazole-4-carboxamide]
10 to 50 nM | CC1=C(C)c2cc(Nc3nn([C@@H]4CCC[C@H]4C#N)cc3C(N)=O)cc(C)c2OB1O (relative stereo) [Example 24, 1-(trans-2-cyanocyclopentyl)-3-[(2-hydroxy-3,4,8-trimethyl-1,2-benzoxaborinin-6-yl)amino]pyrazole-4-carboxamide]
10 to 50 nM | CC1=C(C)c2cc(Nc3nn([C@@H]4CCCC[C@H]4C#N)cc3C(N)=O)cc(C)c2OB1O (relative stereo) [Example 25, 1-(trans-2-cyanocyclohexyl)-3-[(2-hydroxy-3,4,8-trimethyl-1,2-benzoxaborinin-6-yl)amino]pyrazole-4-carboxamide]
< 10 nM | Cc1cc(Nc2nn([C@@H]3CCC[C@H]3C#N)cc2C(N)=O)cc2c1OB(O)C=C2 (relative stereo) [Example 31, 1-(trans-2-cyanocyclopentyl)-3-[(2-hydroxy-8-methyl-1,2-benzoxaborinin-6-yl)amino]pyrazole-4-carboxamide]
< 10 nM | CC1=Cc2cc(Nc3nn([C@@H]4COCC[C@H]4C#N)cc3C(N)=O)cc(C)c2OB1O (relative stereo) [Example 32, 1-[trans-4-cyanotetrahydro-2H-pyran-3-yl]-3-[(2-hydroxy-3,8-dimethyl-1,2-benzoxaborinin-6-yl)amino]pyrazole-4-carboxamide]
< 10 nM | CCC1=C(CC)c2cc(Nc3nn([C@@H]4COCC[C@H]4C#N)cc3C(N)=O)ccc2OB1O (relative stereo) [Example 39, 1-(trans-4-cyanotetrahydro-2H-pyran-3-yl)-3-[(3,4-diethyl-2-hydroxy-1,2-benzoxaborinin-6-yl)amino]pyrazole-4-carboxamide]
10 to 50 nM | CCC1=C(CC)c2cc(Nc3nn([C@@H]4CCC[C@H]4C#N)cc3C(N)=O)ccc2OB1O (relative stereo) [Example 40, 1-(trans-2-cyanocyclopentyl)-3-[(3,4-diethyl-2-hydroxy-1,2-benzoxaborinin-6-yl)amino]pyrazole-4-carboxamide]
